Results taken from PMC5392334, “Discovery and characterization of a novel irreversible EGFR mutants selective and potent kinase inhibitor CHMFL-EGFR-26 with a distinct binding mode” (Oncotarget, 2017).

Tests used:
CAMK2B = target: T1, CAMK2B (Homo sapiens, UniProt Q13554); experiment: KinomeScan; type: binding; conditions: read-out: % control
T1 construct: purchased DiscoveRx KINOMEscan

BaF3-TEL-EGFR-C797S = experiment: Anti-proliferation, BaF3 isogenic cell lines (CellTiter-Glo); type: cell-based; conditions: Mus musculus, 72 hours, triplet testing
DCAMKL1 = target: T2, DCAMKL1 (Homo sapiens, UniProt O15075); experiment: KinomeScan; type: binding; conditions: read-out: % control
T2 construct: purchased DiscoveRx KINOMEscan
T2 sequence (O15075 whole entry): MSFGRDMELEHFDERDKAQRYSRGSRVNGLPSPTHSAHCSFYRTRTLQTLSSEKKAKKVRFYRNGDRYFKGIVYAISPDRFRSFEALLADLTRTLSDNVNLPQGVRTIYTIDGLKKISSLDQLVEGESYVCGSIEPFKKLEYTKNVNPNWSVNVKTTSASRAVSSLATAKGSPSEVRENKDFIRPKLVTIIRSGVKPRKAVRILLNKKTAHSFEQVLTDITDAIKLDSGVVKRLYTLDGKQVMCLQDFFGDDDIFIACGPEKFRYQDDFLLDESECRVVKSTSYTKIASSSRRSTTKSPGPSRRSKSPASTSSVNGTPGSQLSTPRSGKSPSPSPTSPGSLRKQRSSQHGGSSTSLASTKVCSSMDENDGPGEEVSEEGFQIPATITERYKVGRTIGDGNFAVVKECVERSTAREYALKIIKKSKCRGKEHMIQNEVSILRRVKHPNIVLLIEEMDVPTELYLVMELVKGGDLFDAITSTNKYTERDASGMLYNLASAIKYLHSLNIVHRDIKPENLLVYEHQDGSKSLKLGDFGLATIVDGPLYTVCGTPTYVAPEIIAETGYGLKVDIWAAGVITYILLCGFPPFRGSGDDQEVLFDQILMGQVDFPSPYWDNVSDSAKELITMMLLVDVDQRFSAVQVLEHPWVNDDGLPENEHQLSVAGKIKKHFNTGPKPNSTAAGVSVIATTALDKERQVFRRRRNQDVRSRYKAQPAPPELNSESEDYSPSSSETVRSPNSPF

MEK1 = target: T3, MEK1 (Homo sapiens, UniProt Q02750); experiment: KinomeScan; type: binding; conditions: read-out: % control
T3 construct: purchased Invitrogen (SelectScreen service)

WNK3 = target: T4, WNK3 (Homo sapiens, UniProt Q9BYP7); experiment: KinomeScan; type: binding; conditions: read-out: % control
T4 construct: purchased DiscoveRx KINOMEscan

[1] = target: T5, ABL1(Y253F)-phosphorylated (Homo sapiens, UniProt P00519, Y253F); experiment: KinomeScan; type: binding; conditions: read-out: % control
T5 construct: purchased DiscoveRx KINOMEscan

DCAMKL3 = target: T6, DCAMKL3 (Homo sapiens, UniProt Q9C098); experiment: KinomeScan; type: binding; conditions: read-out: % control
T6 construct: purchased DiscoveRx KINOMEscan

NIK = target: T7, NIK (Homo sapiens, UniProt Q99558); experiment: KinomeScan; type: binding; conditions: read-out: % control
T7 construct: purchased DiscoveRx KINOMEscan

EGFR(L858R) = target: T8, EGFR(L858R) (Homo sapiens, UniProt P00533, L858R); experiment: KinomeScan; type: binding; conditions: read-out: % control
T8 construct: purchased DiscoveRx KINOMEscan

EPHA1 = target: T9, EPHA1 (Homo sapiens, UniProt P21709); experiment: KinomeScan; type: binding; conditions: read-out: % control
T9 construct: purchased DiscoveRx KINOMEscan

LZK = target: T10, LZK (Homo sapiens, UniProt O43283); experiment: KinomeScan; type: binding; conditions: read-out: % control
T10 construct: purchased DiscoveRx KINOMEscan

CAMK4 = target: T11, CAMK4 (Homo sapiens, UniProt Q16566); experiment: KinomeScan; type: binding; conditions: read-out: % control
T11 construct: purchased DiscoveRx KINOMEscan

PIM3 = target: T12, PIM3 (Homo sapiens, UniProt Q86V86); experiment: KinomeScan; type: binding; conditions: read-out: % control
T12 construct: purchased DiscoveRx KINOMEscan

SBK1 = target: T13, SBK1 (Homo sapiens, UniProt Q52WX2); experiment: KinomeScan; type: binding; conditions: read-out: % control
T13 construct: purchased DiscoveRx KINOMEscan

CSNK1D = target: T14, CSNK1D (Homo sapiens, UniProt P48730); experiment: KinomeScan; type: binding; conditions: read-out: % control
T14 construct: purchased DiscoveRx KINOMEscan

[2] = target: T15, ABL1(F317I)-phosphorylated (Homo sapiens, UniProt P00519, F317I); experiment: KinomeScan; type: binding; conditions: read-out: % control
T15 construct: purchased DiscoveRx KINOMEscan

BUB1 = target: T16, BUB1 (Homo sapiens, UniProt O43683); experiment: KinomeScan; type: binding; conditions: read-out: % control
T16 construct: purchased DiscoveRx KINOMEscan
T16 sequence (O43683 whole entry): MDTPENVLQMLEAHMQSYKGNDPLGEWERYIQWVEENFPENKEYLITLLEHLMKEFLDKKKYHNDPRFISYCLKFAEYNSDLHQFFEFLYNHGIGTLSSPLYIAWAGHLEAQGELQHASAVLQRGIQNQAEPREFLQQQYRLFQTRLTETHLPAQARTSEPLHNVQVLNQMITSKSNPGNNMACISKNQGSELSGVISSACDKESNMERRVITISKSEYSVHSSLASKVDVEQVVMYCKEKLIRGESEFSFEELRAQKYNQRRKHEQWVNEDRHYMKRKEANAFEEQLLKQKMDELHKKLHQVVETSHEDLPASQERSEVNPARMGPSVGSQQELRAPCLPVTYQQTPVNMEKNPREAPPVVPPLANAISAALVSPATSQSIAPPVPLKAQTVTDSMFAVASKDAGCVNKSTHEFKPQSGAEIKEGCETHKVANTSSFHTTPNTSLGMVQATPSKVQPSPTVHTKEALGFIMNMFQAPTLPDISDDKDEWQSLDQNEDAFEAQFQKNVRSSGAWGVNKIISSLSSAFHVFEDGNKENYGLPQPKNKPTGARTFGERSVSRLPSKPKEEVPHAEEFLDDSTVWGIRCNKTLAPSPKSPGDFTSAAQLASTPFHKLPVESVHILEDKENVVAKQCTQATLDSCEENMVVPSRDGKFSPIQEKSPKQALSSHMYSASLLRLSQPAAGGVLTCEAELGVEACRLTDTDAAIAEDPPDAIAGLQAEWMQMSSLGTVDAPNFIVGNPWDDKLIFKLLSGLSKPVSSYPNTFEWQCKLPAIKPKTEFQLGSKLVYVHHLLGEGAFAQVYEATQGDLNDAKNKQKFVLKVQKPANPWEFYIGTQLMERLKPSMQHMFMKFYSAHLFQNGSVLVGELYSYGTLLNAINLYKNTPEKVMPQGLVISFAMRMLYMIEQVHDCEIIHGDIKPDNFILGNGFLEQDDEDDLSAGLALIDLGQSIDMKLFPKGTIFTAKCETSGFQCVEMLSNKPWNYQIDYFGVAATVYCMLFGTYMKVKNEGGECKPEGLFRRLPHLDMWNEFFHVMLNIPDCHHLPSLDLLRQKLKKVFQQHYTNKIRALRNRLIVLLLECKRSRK

FGFR2 = target: T17, FGFR2 (Homo sapiens, UniProt P21802); experiment: KinomeScan; type: binding; conditions: read-out: % control
T17 construct: purchased DiscoveRx KINOMEscan

LATS2 = target: T18, LATS2 (Homo sapiens, UniProt Q9NRM7); experiment: KinomeScan; type: binding; conditions: read-out: % control
T18 construct: purchased DiscoveRx KINOMEscan

LATS1 = target: T19, LATS1 (Homo sapiens, UniProt O95835); experiment: KinomeScan; type: binding; conditions: read-out: % control
T19 construct: purchased DiscoveRx KINOMEscan

[3] = target: T20, RSK3(Kin.Dom.1-N-terminal) (Homo sapiens, UniProt Q15349); experiment: KinomeScan; type: binding; conditions: read-out: % control
T20 construct: RSK3(Kin.Dom.1-N-terminal); purchased DiscoveRx KINOMEscan
T20 sequence (Q15349 1-388 limits assumed): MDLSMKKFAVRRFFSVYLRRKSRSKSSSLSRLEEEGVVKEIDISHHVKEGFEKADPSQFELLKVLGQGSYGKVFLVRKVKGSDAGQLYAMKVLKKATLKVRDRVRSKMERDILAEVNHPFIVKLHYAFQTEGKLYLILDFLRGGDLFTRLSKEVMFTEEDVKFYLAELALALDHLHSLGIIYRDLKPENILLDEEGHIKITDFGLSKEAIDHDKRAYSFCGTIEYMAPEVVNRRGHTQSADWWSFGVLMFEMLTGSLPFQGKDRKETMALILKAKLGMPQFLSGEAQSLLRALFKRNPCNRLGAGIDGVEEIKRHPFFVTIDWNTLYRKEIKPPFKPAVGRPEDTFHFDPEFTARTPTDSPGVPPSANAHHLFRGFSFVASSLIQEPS

H1975 tumor xenografts = experiment: H1975 cells inoculated xenograft mouse model; conditions: for Tumor weight (final, mean): 21-day treatment
FLT3 = target: T21, FLT3 (Homo sapiens, UniProt P36888); experiment: KinomeScan; type: binding; conditions: read-out: % control
T21 construct: purchased DiscoveRx KINOMEscan

TNK2 = target: T22, TNK2 (Homo sapiens, UniProt Q07912); experiment: KinomeScan; type: binding; conditions: read-out: % control
T22 construct: purchased DiscoveRx KINOMEscan

CDK2 = target: T23, CDK2 (Homo sapiens, UniProt P24941); experiment: KinomeScan; type: binding; conditions: read-out: % control
T23 construct: purchased DiscoveRx KINOMEscan

MEK5 = target: T24, MEK5 (Homo sapiens, UniProt Q13163); experiment: KinomeScan; type: binding; conditions: read-out: % control
T24 construct: purchased DiscoveRx KINOMEscan
T24 sequence (Q13163 whole entry): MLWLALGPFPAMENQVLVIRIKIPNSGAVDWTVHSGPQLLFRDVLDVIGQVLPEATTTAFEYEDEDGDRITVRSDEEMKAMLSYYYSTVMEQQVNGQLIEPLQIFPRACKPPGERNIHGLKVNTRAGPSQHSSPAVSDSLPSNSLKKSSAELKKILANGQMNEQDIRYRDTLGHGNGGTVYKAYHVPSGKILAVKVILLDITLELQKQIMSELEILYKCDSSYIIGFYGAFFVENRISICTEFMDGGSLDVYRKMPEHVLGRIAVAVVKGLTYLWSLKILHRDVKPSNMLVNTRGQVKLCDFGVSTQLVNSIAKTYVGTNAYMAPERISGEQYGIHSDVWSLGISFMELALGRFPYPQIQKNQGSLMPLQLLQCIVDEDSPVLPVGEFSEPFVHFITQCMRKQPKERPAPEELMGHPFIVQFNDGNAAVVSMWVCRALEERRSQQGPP

CLK2 = target: T25, CLK2 (Homo sapiens, UniProt P49760); experiment: KinomeScan; type: binding; conditions: read-out: % control
T25 construct: purchased DiscoveRx KINOMEscan

KIT(L576P) = target: T26, KIT(L576P) (Homo sapiens, UniProt P10721, L576P); experiment: KinomeScan; type: binding; conditions: read-out: % control
T26 construct: purchased DiscoveRx KINOMEscan

FRK = target: T27, FRK (Homo sapiens, UniProt P42685); experiment: KinomeScan; type: binding; conditions: read-out: % control
T27 construct: purchased DiscoveRx KINOMEscan

PDPK1 = target: T28, PDPK1 (Homo sapiens, UniProt O15530); experiment: KinomeScan; type: binding; conditions: read-out: % control
T28 construct: purchased DiscoveRx KINOMEscan

ERK4 = target: T29, ERK4 (Homo sapiens, UniProt P31152); experiment: KinomeScan; type: binding; conditions: read-out: % control
T29 construct: purchased DiscoveRx KINOMEscan

GSK3B = target: T30, GSK3B (Homo sapiens, UniProt P49841); experiment: KinomeScan; type: binding; conditions: read-out: % control
T30 construct: purchased DiscoveRx KINOMEscan
T30 sequence (P49841 whole entry): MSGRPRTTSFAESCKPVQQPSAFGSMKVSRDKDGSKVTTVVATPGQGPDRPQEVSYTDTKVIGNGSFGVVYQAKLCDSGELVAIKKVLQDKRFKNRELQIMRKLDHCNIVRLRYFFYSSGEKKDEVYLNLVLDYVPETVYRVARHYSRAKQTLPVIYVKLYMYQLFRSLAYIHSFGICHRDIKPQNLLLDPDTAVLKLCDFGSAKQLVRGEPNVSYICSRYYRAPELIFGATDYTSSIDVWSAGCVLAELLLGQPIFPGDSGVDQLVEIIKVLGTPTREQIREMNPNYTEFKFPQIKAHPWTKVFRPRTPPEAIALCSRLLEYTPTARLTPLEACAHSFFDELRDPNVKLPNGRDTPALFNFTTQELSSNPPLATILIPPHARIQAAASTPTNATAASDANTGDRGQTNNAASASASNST

IGF1R = target: T31, IGF1R (Homo sapiens, UniProt P08069); experiment: KinomeScan; type: binding; conditions: read-out: % control
T31 construct: purchased DiscoveRx KINOMEscan

MARK2 = target: T32, MARK2 (Homo sapiens, UniProt Q7KZI7); experiment: KinomeScan; type: binding; conditions: read-out: % control
T32 construct: purchased DiscoveRx KINOMEscan
T32 sequence (Q7KZI7 whole entry): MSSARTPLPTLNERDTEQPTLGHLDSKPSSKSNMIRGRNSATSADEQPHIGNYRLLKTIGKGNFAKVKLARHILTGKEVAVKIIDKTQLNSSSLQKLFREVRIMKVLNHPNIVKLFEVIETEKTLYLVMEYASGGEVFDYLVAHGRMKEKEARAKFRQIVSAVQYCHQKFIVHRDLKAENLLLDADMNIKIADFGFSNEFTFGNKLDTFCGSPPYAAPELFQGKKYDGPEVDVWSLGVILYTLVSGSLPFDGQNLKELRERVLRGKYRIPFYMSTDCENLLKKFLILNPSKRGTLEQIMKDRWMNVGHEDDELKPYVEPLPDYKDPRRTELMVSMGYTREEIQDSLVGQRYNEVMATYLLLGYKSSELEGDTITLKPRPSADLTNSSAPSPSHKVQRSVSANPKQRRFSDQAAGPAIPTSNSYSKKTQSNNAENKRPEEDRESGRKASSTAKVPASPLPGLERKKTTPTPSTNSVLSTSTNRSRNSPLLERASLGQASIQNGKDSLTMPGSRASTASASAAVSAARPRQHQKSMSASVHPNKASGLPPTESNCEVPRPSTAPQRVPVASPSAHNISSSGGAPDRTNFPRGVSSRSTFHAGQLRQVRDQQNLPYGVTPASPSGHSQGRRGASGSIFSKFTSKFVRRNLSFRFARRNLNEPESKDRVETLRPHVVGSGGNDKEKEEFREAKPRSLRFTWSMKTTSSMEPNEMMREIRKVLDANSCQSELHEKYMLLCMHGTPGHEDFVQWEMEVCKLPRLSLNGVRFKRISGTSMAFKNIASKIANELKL

AKT1 = target: T33, AKT1 (Homo sapiens, UniProt P31749); experiment: KinomeScan; type: binding; conditions: read-out: % control
T33 construct: purchased DiscoveRx KINOMEscan
T33 sequence (P31749 whole entry): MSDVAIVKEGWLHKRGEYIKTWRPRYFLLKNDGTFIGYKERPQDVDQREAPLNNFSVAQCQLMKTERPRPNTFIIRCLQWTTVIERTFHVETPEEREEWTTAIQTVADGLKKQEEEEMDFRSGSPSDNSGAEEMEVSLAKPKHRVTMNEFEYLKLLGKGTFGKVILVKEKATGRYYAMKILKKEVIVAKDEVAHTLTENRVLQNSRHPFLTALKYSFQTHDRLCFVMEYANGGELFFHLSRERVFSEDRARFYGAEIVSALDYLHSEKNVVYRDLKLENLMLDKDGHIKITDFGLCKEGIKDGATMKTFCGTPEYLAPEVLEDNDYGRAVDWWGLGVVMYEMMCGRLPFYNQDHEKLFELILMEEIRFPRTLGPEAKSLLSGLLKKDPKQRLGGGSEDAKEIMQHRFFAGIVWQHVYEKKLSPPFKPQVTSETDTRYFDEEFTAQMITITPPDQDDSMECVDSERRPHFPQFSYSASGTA

CDK8 = target: T34, CDK8 (Homo sapiens, UniProt P49336); experiment: KinomeScan; type: binding; conditions: read-out: % control
T34 construct: purchased DiscoveRx KINOMEscan

MAST1 = target: T35, MAST1 (Homo sapiens, UniProt Q9Y2H9); experiment: KinomeScan; type: binding; conditions: read-out: % control
T35 construct: purchased DiscoveRx KINOMEscan

YSK4 = target: T36, YSK4 (Homo sapiens, UniProt Q56UN5); experiment: KinomeScan; type: binding; conditions: read-out: % control
T36 construct: purchased DiscoveRx KINOMEscan

PIP5K1C = target: T37, PIP5K1C (Homo sapiens, UniProt O60331); experiment: KinomeScan; type: binding; conditions: read-out: % control
T37 construct: purchased DiscoveRx KINOMEscan
T37 sequence (O60331 whole entry): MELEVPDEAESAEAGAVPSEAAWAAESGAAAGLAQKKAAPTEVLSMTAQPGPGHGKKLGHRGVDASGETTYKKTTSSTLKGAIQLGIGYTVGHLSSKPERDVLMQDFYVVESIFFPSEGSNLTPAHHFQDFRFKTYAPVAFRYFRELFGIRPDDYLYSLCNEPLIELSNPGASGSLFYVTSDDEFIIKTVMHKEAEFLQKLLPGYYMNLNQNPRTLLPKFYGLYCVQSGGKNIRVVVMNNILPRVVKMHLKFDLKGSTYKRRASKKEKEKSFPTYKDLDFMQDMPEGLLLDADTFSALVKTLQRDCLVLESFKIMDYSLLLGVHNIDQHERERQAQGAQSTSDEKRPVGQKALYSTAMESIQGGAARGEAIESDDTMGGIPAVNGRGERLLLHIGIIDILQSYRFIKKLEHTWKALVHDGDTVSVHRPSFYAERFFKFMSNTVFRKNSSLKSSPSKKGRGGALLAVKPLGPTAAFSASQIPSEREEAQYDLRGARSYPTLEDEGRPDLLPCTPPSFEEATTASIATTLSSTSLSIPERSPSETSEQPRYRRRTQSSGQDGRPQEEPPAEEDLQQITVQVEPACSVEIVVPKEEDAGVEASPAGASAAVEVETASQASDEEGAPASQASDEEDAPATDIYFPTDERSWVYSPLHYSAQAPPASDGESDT

KIT(V559D,T670I) = target: T38, KIT(V559D,T670I) (Homo sapiens, UniProt P10721, T670I/V559D); experiment: KinomeScan; type: binding; conditions: read-out: % control
T38 construct: purchased DiscoveRx KINOMEscan

WEE2 = target: T39, WEE2 (Homo sapiens, UniProt P0C1S8); experiment: KinomeScan; type: binding; conditions: read-out: % control
T39 construct: purchased DiscoveRx KINOMEscan

[4] = H1975 xenograft, 25.0 mg/kg/d oral
[5] = H1975 xenograft, 50.0 mg/kg/d oral
[6] = H1975 xenograft, 100 mg/kg/d oral

Work on `C=CC(=O)N1CCC[C@@H](n2nc(-c3ccc(OCc4cccc(C)n4)c(Cl)c3)c3c(N)ncnc32)C1` [CHMFL-EGFR-26] yielded a remaining binding at 1 µM (CAMK2B) of 97%, a GI50 (BaF3-TEL-EGFR-C797S) of 2500 nM and a remaining binding at 1 µM (DCAMKL1) of 88%. The remaining binding at 1 µM (MEK1) was 0.3%, the remaining binding at 1 µM (WNK3) was 100% and the remaining binding at 1 µM [1] was 100%. For the same compound, the remaining binding at 1 µM (DCAMKL3) was 100%, the remaining binding at 1 µM (NIK) was 100% and the remaining binding at 1 µM (EGFR(L858R)) was 2.5%. For the same compound, the remaining binding at 1 µM (EPHA1) was 42%, the remaining binding at 1 µM (LZK) was 86% and the remaining binding at 1 µM (CAMK4) was 100%. The remaining binding at 1 µM (PIM3) was 100%, the remaining binding at 1 µM (SBK1) was 100% and the remaining binding at 1 µM (CSNK1D) was 95%. The remaining binding at 1 µM [2] was 98%, the remaining binding at 1 µM (BUB1) was 76% and the remaining binding at 1 µM (FGFR2) was 100%. For the same compound, the remaining binding at 1 µM (LATS2) was 96%, the remaining binding at 1 µM (LATS1) was 82% and the remaining binding at 1 µM [3] was 99%. For the same compound, the “TGI (tumor growth inhibition rate)” value (H1975 tumor xenografts; [4]) was 23.0%, the “Tumor weight (final, mean)” value (H1975 tumor xenografts; [4]) was 1.37 g and the “TGI (tumor growth inhibition rate)” value (H1975 tumor xenografts; [5]) was 48.9%. For the same compound, the “Tumor weight (final, mean)” value (H1975 tumor xenografts; [5]) was 0.91 g, the “TGI (tumor growth inhibition rate)” value (H1975 tumor xenografts; [6]) was 60.1% and the “Tumor weight (final, mean)” value (H1975 tumor xenografts; [6]) was 0.71 g. The “toxicity (body weight)” value (H1975 tumor xenografts; H1975 xenograft, oral 25, 50 and 100mg/kg/day) was “did not show any apparent toxicity”, the hyperglycemia (H1975 tumor xenografts; preclinical mouse model study) was “no hyperglycemia phenomenon was observed” and the remaining binding at 1 µM (FLT3) was 95%. For the same compound, the remaining binding at 1 µM (TNK2) was 93%, the remaining binding at 1 µM (CDK2) was 100% and the remaining binding at 1 µM (MEK5) was 0.1%. It also gave a remaining binding at 1 µM (CLK2) of 96%, a remaining binding at 1 µM (KIT(L576P)) of 91% and a remaining binding at 1 µM (FRK) of 96%. For the same compound, the remaining binding at 1 µM (PDPK1) was 97%, the remaining binding at 1 µM (ERK4) was 83% and the remaining binding at 1 µM (GSK3B) was 97%. For the same compound, the remaining binding at 1 µM (IGF1R) was 100%, the remaining binding at 1 µM (MARK2) was 95% and the remaining binding at 1 µM (AKT1) was 98%. The remaining binding at 1 µM (CDK8) was 92%, the remaining binding at 1 µM (MAST1) was 93% and the remaining binding at 1 µM (YSK4) was 67%. It also gave a remaining binding at 1 µM (PIP5K1C) of 67%, a remaining binding at 1 µM (KIT(V559D,T670I)) of 100% and a remaining binding at 1 µM (WEE2) of 84%.
